From patent publication US20190375791A1, “NEW D-CONFIGURED CATESLYTIN PEPTIDE” (priority 2016, published 2019)
In brackets after ≈: the same amount, converted by molar mass. Where a SMILES comes first, the peptide text is derived from it. [ ]: non-standard residue; d: D form.

How the values were obtained:
[1] = system: Parvimonas micra; experiment: microbe, parasite or virus in culture
Procedure: (§1) E. coli K-12 mutant E2146 was kindly provided by the Institut Pasteur of Paris. […] It is resistant to specific antibiotics, i.e. ampicillin, chloramphenicol, and kanamycin.
(§2) MIC was determined by broth microdilution. […] Experiments were performed with biological replicates.
(§3) To this aim, they determined the Fractional Inhibitory Concentration Index (FICI) of the combination between D-CTL and each antibiotic of reference.

[2] = system: E. coli (ATCC 25922); experiment: Resistance acquisition assay; type: cell-based, Escherichia coli; conditions: E. coli wild type cultured at sub-MIC (½ MIC) concentrations, day 28
Procedure: FIG. 1: Resistance acquisition assay of E. coli in the presence of D-CTL compared to ampicillin and cefotaxim. Bacteria were cultured in the presence of ½ MIC of the antibacterial agent for […]. The fold change in MIC was evaluated at the indicated days. The graph is representative of two experiments done independently.
E. coli (ATCC® 25922™ ) strain was sequentially passaged every day in the presence of the different antibacterial compounds: D-CTL, ampicillin or cefotaxime at ½ MIC during 28 days. The changes in the MICs were determined as previously described by broth microdilution at the indicated times.

[3] = system: Escherichia coli Amp^R Kan^RChlo^R; conditions: Escherichia coli Amp^R Kan^R Chlo^R (multi-resistant), 24 hours incubation
Procedure: as §1, §2, §3

[4] = system: Escherichia coli; experiment: microbe, parasite or virus in culture; conditions: 24 h
Procedure: as §1, §2

[5] = system: Fusobacterium nucleatum; conditions: 24 h
Procedure: as §1, §2, §3

[6] = system: Prevotella intermedia; conditions: 24 h
Procedure: as §1, §2, §3

[7] = system: Staphylococcus aureus (MSSA); experiment: microbe, parasite or virus in culture
Procedure: as §1, §2, §3

[8] = Peptide stability assay towards bacterial virulence factors (supernatants) using HPLC; type: in vitro ADME; conditions: 24 hours
Procedure: FIG. 5: Stability of D-CTL and L-CTL towards the virulence factors of different bacterial strains. […] Chromatograms 1 correspond to supernantant only, chromatograms 2 correspond to supernatant and peptide and chromatograms 3 corresponds to peptide only.
Bacteria were then centrifuged for lmin at 13000rpm and the supernatant filtered using a 0,2 μm Millex filter (Merck-Millipore) to remove any residual bacteria.

[9] = system: Enterococcus faecalis; type: cell-based; conditions: for bacterial growth inhibition of E. faecalis: peptides at 200 μg/mL
Procedure: Enterococcus faecalis (CCM 2541) was obtained from the Czechoslovac Collection of Microorganisms (Czech Republic) Bacteria were cultured in Anaerobe Basal Broth (Oxoid, France) at 37° C. in anaerobic conditions. Candida albicans (ATCC© 10231™) was cultured in Sabouraud medium (BD, France) supplemented with tetracycline (10 μg/mL) and cefotaxime (10 μg/mL).
An overnight culture of each pathogen was diluted (OD600 nm=0.001) and incubated at 37° C. in 96-plates in the presence of different concentrations of antimicrobial agents. When testing Ca(OH)2, the pH of the solution was measured with by pH meter. (CyberScan pH 510©, Eutech, France). After 24 h incubation, the OD620 nm was evaluated with a spectrophotometer (Multikan EX, ThermoScientific, France). Each assay was done at least in triplicate. For each set of assay, the standard deviation was determined.

[10] = Ca(OH)2 0,85 g/L pH 8,5, ½ MIC of D-CTL, HPLC
Procedure: The samples were then analyzed by HPLC. Chromatogram 1 corresponds to D-CTL, chromatogram 2 corresponds to D-CTL diluted in a saturated solution of Ca(OH)2 (pH 9). Absorbance is expressed in Unity of Milli-Absorbance (UmA) depending on the time in minutes (min).
Regarding the stability of D-CTL in Ca(OH)2, the peptide was incubated in a buffered Ca(OH)2 solution at 37° C. for 24 h. The pH of the Ca(OH)2 solution was buffered at the same pH than the one determined during the broth dilution assays. As negative controls, D-CTL in water was also incubated at 37° C. for 24 h.
(§4) The samples were analyzed by HPLC (Dionex, Ultimate 3000, CA USA) using a Nucleosil reverse-phase 300-5C18-colum (4,6×250 mm; particle size: 5 μm; porosity, 300 Å) (Macherey Nagel, France). Two solvents used were: 0.1% (v/v) TFA in water (Solvent A) and 0.09% (v/v) TFA in 70% (v/v) acetonitrile-water (solvent B). Absorbance was measured at 214 nm (A214 nm). The flow rate for elution was 0,7 mL/min with a gradient of solvent B as indicated on the chromatograms.

[11] = 300 μg/mL, 37° C., 24 h, HPLC
Procedure: as §4

[12] = 19 μg peptide in 100 μL supernatant, 37° C., 24 h, HPLC
Excerpt: Absence of growth was interpreted as lack of viable microorganism.
Absorbance was monitored at 214 nm and the solvent system consisted of 0.1% (v/v) TFA in water (solvent A) and 0.09% (v/v) TFA in 70% (v/v) acetonitrile-water (solvent B).

[13] = saliva from ten healthy volunteers, 24 hours
Procedure: Saliva from ten healthy volunteers was incubated with D-CTL or L-CTL for 24 hours and peptide stability was then assessed by LC-SRM. The analyses were performed on an Agilent 1100 Series HPLC system hyphenated to a QQQ-6490 triple quadrupole (Agilent Technologies). A total of 48 transitions (6 precursors) were monitored in an unscheduled mode within a total cycle time of 3 000 ms.
All samples were centrifuged at 14 000 g during 5 min at +4° C. and then diluted 3 times in water with 0.1% (v/v) HCOOH. For each sample, 2 μL were injected on the LC-SRM system. All separations were carried out on Agilent 1100 Series HPLC system (Agilent Technologies). For each analysis, the sample was loaded into a trapping column ZORBAX 300SB-C18 MicroBore Guard 5 gm, 1.0×17 mm (Agilent Technologies) at 50 μL/min with aqueous solution containing 0.1% (v/v) HCOOH and 2% CH3CN. After 3 min trapping, the column was put on-line with a ZORBAX 300SB-C18 3.5 μm, 0.3×150 mm column (Agilent Technologies). […]
For LC-SRM assay, each peptide was targeted with either an oxidized or non-oxidized state [[sequence]]. […] For each of the 6 precursors, 8 transitions were monitored (48 transitions in total) on a QQQ-6490 triple quadrupole mass spectrometer (Agilent technologies) in unscheduled mode and within a cycle time of 3 000 s. […] The reference value was calculated using the equation given by the supplier. […]

[14] = system: Staphylococcus aureus (MRSA); experiment: microbe, parasite or virus in culture; conditions: 24 h
Procedure: as §1, §2, §3

[15] = system: Candida albicans; experiment: microbe, parasite or virus in culture; type: cell-based
Procedure: Candida albicans (ATCC© 10231™ distributed by LGC Standards, Molsheim, France) was cultured in Sabouraud medium (Sigma-Aldrich) supplemented with tetracycline (10 μg/mL) and cefotaxime (10 μg/mL) at 37° C. for 24 h. Candida albicans (OD600 nm=0,001) were plated in 96-well plates and treated either with different concentrations of the peptides of interest, and/or with different concentrations of voriconazole (VCZ) (Sigma-Aldrich). As a positive control, cells were treated with 10 μg/mL VCZ. After 24 h incubation, yeast growth was assessed by optical density OD600 nm using a spectrophotometer (Multiscan EX, Shanghai, China).
The MFC is defined as the lowest concentration of peptide able to inhibit 100% of yeasts, and determined using a modified Gompertz model as described in Lambert et Pearson (Lambert and Pearson 2000, J Appl Microbiol, 88(5): 784-790).
The efficiency of the combination D-CTL/VCZ was determined by the calculation of the Fractional inhibitory concentration (FIC) index according to the following formula: FICI=FICD-CTL+FICVCZ. According to EUCAST (European Committee on Antimicrobial Suscpetibility Testing), the effect of the combination is synergistic if FICI≤0,5, additive if 0,5<FICI≤1, indifferent if 1<FICI<2, antagonistic if FICI≥2^40-41. • Results D-CTL Inhibits the Groth of C. albicans

CC1(C)S[C@@H]2[C@H](NC(=O)[C@H](N)c3ccc(O)cc3)C(=O)N2[C@H]1C(=O)O [Amoxicillin]
MIC ([1]; 24 h): 0.45 µg/mL

CC1(C)S[C@@H]2[C@H](NC(=O)[C@H](N)c3ccccc3)C(=O)N2[C@H]1C(=O)O [Ampicillin]
change in MIC over the culture [2]: 3 times the MIC

CO/N=C(\C(=O)N[C@@H]1C(=O)N2C(C(=O)O)=C(COC(C)=O)CS[C@H]12)c1csc(N)n1 [Cefotaxim]
MIC [3]: 0.09 µg/mL
change in MIC over the culture [2]: 3 times the MIC

CSCC[C@@H](NC(=O)[C@@H](CO)NC(=O)[C@H](N)CCCNC(=N)N)C(=O)N[C@H](CCCNC(=N)N)C(=O)N[C@H](CC(C)C)C(=O)N[C@H](CO)C(=O)N[C@H](Cc1ccccc1)C(=O)N[C@H](CCCNC(=N)N)C(=O)N[C@H](C)C(=O)N[C@H](CCCNC(=N)N)C(=O)NCC(=O)N[C@H](Cc1ccc(O)cc1)C(=O)NCC(=O)N[C@H](Cc1ccccc1)C(=O)N[C@H](CCCNC(=N)N)C(=O)O [D-CTL] (H-[dR][dS][dM][dR][dL][dS][dF][dR][dA][dR]G[dY]G[dF][dR]-OH; N-terminus and C-terminus assumed)
MIC [4]: 8 µg/mL (≈ 4.3 µM)
MIC [3]: 8.4 µg/mL
MIC [5]: 22.4 µg/mL
MIC [6]: 10 µg/mL
MIC ([1]; 24 hours incubation): 23 µg/mL
MIC ([7]; Staphylococcus aureus (MSSA), 24 hours incubation): 24 µg/mL
degradation in bacterial supernatants ([8]; all bacterial supernatants tested, 37° C.): not degraded
MIC on E. faecalis [9]: 156 µg/mL (≈ 83.9 µM)
stability in a buffered solution of Ca(OH)2 [10]: stable
degradation in the supernatant of E. faecalis [11]: not degraded
stability in the supernatant of Candida albicans [12]: remains stable
stability in saliva [13]: stable

NC[C@H]1O[C@H](O[C@H]2[C@H](O)[C@@H](O[C@H]3O[C@H](CO)[C@@H](O)[C@H](N)[C@H]3O)[C@H](N)C[C@@H]2N)[C@H](O)[C@@H](O)[C@@H]1O [Kanamycin]
MIC ([4]; Escherichia coli): 21.6 µg/mL (≈ 44.6 µM)

CSCC[C@H](NC(=O)[C@H](CO)NC(=O)[C@@H](N)CCCNC(=N)N)C(=O)N[C@@H](CCCNC(=N)N)C(=O)N[C@@H](CC(C)C)C(=O)N[C@@H](CO)C(=O)N[C@@H](Cc1ccccc1)C(=O)N[C@@H](CCCNC(=N)N)C(=O)N[C@@H](C)C(=O)N[C@@H](CCCNC(=N)N)C(=O)NCC(=O)N[C@@H](Cc1ccc(O)cc1)C(=O)NCC(=O)N[C@@H](Cc1ccccc1)C(=O)N[C@@H](CCCNC(=N)N)C(=O)O [L-CTL] (H-RSMRLSFRARGYGFR-OH; N-terminus and C-terminus assumed)
MIC [4]: 75 µg/mL (≈ 40.3 µM)
MIC [3]: 150 µg/mL
MIC [5]: 125.3 µg/mL
MIC [6]: 148.6 µg/mL
MIC ([1]; 24 hours incubation): 120 µg/mL
MIC [14]: 37 µg/mL
MIC ([7]; 24 h): 40 µg/mL
degradation by virulence factors ([8]; supernatant of E. coli multiresistant strain): degraded
degradation by virulence factors ([8]; supernatant of E. coli wild type strain): degraded
stability in the supernatant of Candida albicans [12]: degraded
stability in saliva [13]: unlike L-CTL, D-CTL was stable

COc1cccc(OC)c1C(=O)N[C@@H]1C(=O)N2[C@@H]1SC(C)(C)[C@@H]2C(=O)O [Methicillin]
MIC ([7]; Staphylococcus aureus, MSSA, 24 h): 1.2 µg/mL

C[C@@H](c1ncncc1F)[C@](O)(Cn1cncn1)c1ccc(F)cc1F [VCZ, voriconazole]
MFC ([15]; Candida albicans, 24 h, modified Gompertz model, read-out: minimal fungicidal concentration (MFC)): 0.07 µg/mL
FIC ([15]; combination D-CTL/VCZ on Candida albicans): 0.25

CN[C@H](CC(C)C)C(=O)N[C@H]1C(=O)N[C@@H](CC(N)=O)C(=O)N[C@H]2C(=O)N[C@H]3C(=O)N[C@H](C(=O)N[C@H](C(=O)O)c4cc(O)cc(O)c4-c4cc3ccc4O)[C@H](O)c3ccc(c(Cl)c3)Oc3cc2cc(c3O[C@@H]2O[C@H](CO)[C@@H](O)[C@H](O)[C@H]2O[C@H]2C[C@](C)(N)[C@H](O)[C@H](C)O2)Oc2ccc(cc2Cl)[C@H]1O [Vancomycin]
MIC ([14]; Staphylococcus aureus, MRSA): 0.8 µg/mL

RILSILRHQNLLKELQDLAL [CHR, bovine chromofungin bCgA47-70]
bacterial growth inhibition of E. faecalis [9]: no antimicrobial activity

RSMRLSFRARGYGFRGPGLQL [CAT]
bacterial growth inhibition of E. faecalis [9]: no antimicrobial activity
